From patent US9938301B2, “Dihydropyrimido fused ring derivative as HBV inhibitor” (QILU PHARMACEUTICAL CO., LTD., priority 2014, dated 2018) come the findings set out here.

In the first experiment the test system is HBV DNA in HepG2.2.15 cells. Put plainly: HBV in vitro dot-blot hybridization test. In kind it is cell-based, Hepatitis B virus. The following applies: Hepatitis B virus, HepG2.2.15, dot-blot hybridization assay, read-out: Concentration for 50% inhibition of HBV (EC50)value. As to the method: • 1. Purpose of the test: • The content of HBV DNA in HepG2.2.15 cells was detected by dot-blot hybridization test to evaluate an inhibitory action of the compound on HBV with an EC50 value as an indicator. • 2. Experimental materials: • 2.1 Cell lines: HepG2.2.15 Cells • HepG2.2.15 cell culture media (DMEM/F12, Invitrogen-11330057; 10% serum Invitrogen-10099141; 100 units/mL Penicillin and 10 μg/mL Streptomycin, Invitrogen-15140122; 1% non-essential amino acid, Invitrogen-11140076; 2 mM L-GLUTAMINE, Invitrogen-25030081; 300 µg/ml Geneticin, Invitrogen-10131027 • 2.2 Reagents: • Trypsin (I Invitrogen-25300062) • DPBS (Hyclone-SH30028.01B) • DMSO (Sigma-D2650-100ML) • 96-well cell-culture plate (Corning-3599) • CO2 incubator (HERA-CELL-240) • 20×SSC (Bio-serve Co. Ltd) • Tris-HCl (Aldirch-154563-1KG) • NaOH (Sinopharm 10019718) • NaCl (Sinopharm 10019308) • Hybridization solution (Major BioTech Co. Ltd, IMMUNE GOLD-HYB-500) • DIG Wash and Block Buffer set (Roche-11585762001) • Anti-digoxigenin-AP, Fab fragments from sheep (Roche-11093274910) • 2.3 Materials and Instruments: • Positively-Charged Nylon Membrane (GE-RPN2250B) • Transfer Membrane Instrument (Bio-Rad, 170-6545) • Hybridization Oven (HL-2000 Hybrilinker) • 3. Testing steps and Methods: • 3.1 HepG2.2.15 cells (4×10^4 cells/well) were planted into a 96-well plate, and at 37° C., 5% CO2 cultured overnight. • 3.2 On Day 2, the compounds were diluted in totally 6 concentrations with a dilution gradient of five times. The compounds at different concentrations were added into the culture wells in duplicate. The final concentration of DMSO in the culture media was 1%. 1 μM GLS4 was used as 100% inhibition control; 1% DMSO as 0% inhibition control. • 3.3 On Day 5, replacing with the fresh culture media containing the compound was performed. • 3.4 On Day 8 and Day 9, the culture media in the culture wells was removed, and the cells were harvested for dot-blot hybridization. • The lysate was added into a culture well, and at 37° C. incubating for half an hour to disintegrate cells; the supernatant was obtained by centrifugation and transferred into a new microplate; a denaturation solution was added, after sufficient mixing the denatured sample was transferred and imprinted onto a Nylon membrane, the nucleic acid was fixed onto the membrane by UV cross-linking. • Pre-hybridization: the membrane was incubated at 60° C. in a hybridization solution for 1 hour. • Hybridization: heating the denatured digoxin-labelled HBV DNA probe and incubating at 60° C. overnight. • Membrane Washing: performing high strigency washing twice, low strigency washing for 3 times. • Blocking: incubating the membrane at room temperature in a blocking solution for 30-60 minutes. • Hybridization: diluting the Antibody Solution with the blocking solution, in which the membrane was placed and incubated at room temperature for 30-60 minutes. • Developing: washing the membrane in a Detection Buffer for 5 minutes, followed by adding a developing solution, pressing and exposing. • The photos was saved in tiff format, and a gray value of the dot was quantified with quantity one software. • 3.5 Data Analysis: • 3.5.1 The inhibition percentage was calculated: % Inh.=[1−(sample dot gray value−1 μM GLS4 dot gray value 1)/(DMSO control dot gray value−1 μM GLS4 dot gray value 1)]×100. • 3.5.2 Calculating EC50: the concentration of the compound for 50% inhibition of HBV (EC50) was calculated by using GraphPad Prism Software. • 4.
Take `CCOC(=O)C1=C2CCCN2C(c2nccs2)=NC1c1ccc(F)cc1Cl` (racemic) [Example 1]: the EC50 lay in the range of 100 to 500 nM.
The same measure, in the same setting: the figure for `CCOC(=O)C1=C2C(N(C)CCO)CCN2C(c2nccs2)=NC1c1ccc(F)cc1Cl` (racemic) [Example 2] is 1000 to 5000 nM; for `CCOC(=O)C1=C2[C@@H](C(N)=O)CCN2C(c2nccs2)=N[C@H]1c1ccc(F)cc1Cl` (racemic) [Example 3] it is 100 to 500 nM; for `CCOC(=O)C1=C2CCCN2C(c2nccs2)=NC1c1ccc(F)cc1Br` (racemic) [Example 4] it is 100 to 500 nM.
`CCOC(=O)C1=C2C[C@@H](CO)CN2C(c2nccs2)=NC1c1ccc(F)cc1Br` (mixture of isomers) [Example 8]: the EC50 is 100 to 500 nM.
For the compound `COCC1CC2=C(C(=O)OC)C(c3ccc(F)cc3Br)N=C(c3nccs3)N2C1` (racemic) [Example 10], the EC50 was 1000 to 5000 nM.
Still for that read-out and setting: the figure for `CCOC(=O)C1=C2C[C@@H](CN3CCOCC3)CN2C(c2nccs2)=NC1c1ccc(F)cc1Br` (mixture of isomers) [Example 17] is 1000 to 5000 nM; for `CCOC(=O)C1=C2CC(C(=O)O)CN2C(c2nccs2)=NC1c1ccc(F)cc1Br` (racemic) [Example 23] it is 1000 to 5000 nM; for `CCOC(=O)C1=C2C[C@@H](C(N)=O)CN2C(c2nccs2)=NC1c1ccc(F)cc1Br` (mixture of isomers) [Example 28] it is 100 to 500 nM.
Same read-out and setting: the figure for `CCOC(=O)C1=C2CC(NC(=O)OC)CN2C(c2nccs2)=N[C@H]1c1ccc(F)cc1Br` (mixture of isomers) [Example 42] is less than 100 nM; for `CCOC(=O)C1=C2CC(NC(=O)OC(C)C)CN2C(c2nccs2)=N[C@H]1c1ccc(F)cc1Br` (mixture of isomers) [Example 45] it is less than 100 nM; for `CCOC(=O)C1=C2CC(NC(C)=O)CN2C(c2nccs2)=N[C@H]1c1ccc(F)cc1Br` (mixture of isomers) [Example 48] it is 100 to 500 nM.
The same measure, in the same setting: the figure for `CCOC(=O)C1=C2CC(NC(=O)NC)CN2C(c2nccs2)=N[C@H]1c1ccc(F)cc1Br` (mixture of isomers) [Example 51] is 100 to 500 nM; for `CCOC(=O)C1=C2CC(NS(=O)(=O)NC)CN2C(c2nccs2)=N[C@H]1c1ccc(F)cc1Br` (mixture of isomers) [Example 54] it is less than 100 nM; for `CCOC(=O)C1=C2CC(NS(C)(=O)=O)CN2C(c2nccs2)=N[C@H]1c1ccc(F)cc1Br` (mixture of isomers) [Example 57] it is less than 100 nM.
As to `CCOC(=O)C1=C2CC(NS(=O)(=O)C3CC3)CN2C(c2nccs2)=N[C@H]1c1ccc(F)cc1Br` (mixture of isomers) [Example 60], the EC50 is less than 100 nM.
Same read-out and setting: the figure for `CCOC(=O)C1=C2COC(=O)N2C(c2nccs2)=NC1c1ccc(F)cc1Br` (racemic) [Example 67] is 100 to 500 nM.
The same measure, in the same setting: as for `CCOC(=O)C1=C2CCC(=O)N2C(c2nccs2)=NC1c1ccc(F)cc1Br` (racemic) [Example 68], the figure is 1000 to 5000 nM; as for `CCOC(=O)C1=C2CCCN2C(c2nccs2)=NC1c1ccc(F)c(F)c1` (racemic) [Example 69], 100 to 500 nM.

Staying with this experiment, now noted: Hepatitis B virus, HepG2.2.15, summary list of target compounds, Examples 1-165 (same as Table 2), read-out: BIOACTIVITY (inhibitory actions on HBV DNA, EC50).
Consider `CCOC(=O)C1=C2CCCN2C(c2nccs2)=NC1c1ccc(F)cc1Cl` (racemic) [Example 1], for which the EC50 was 100 to 500 nM.
In the case of `CCOC(=O)C1=C2C(N(C)CCO)CCN2C(c2nccs2)=NC1c1ccc(F)cc1Cl` (racemic) [Example 2], the EC50 was in the range of 1000 to 5000 nM.
On the same count and under the same terms, the figure for `CCOC(=O)C1=C2[C@@H](C(N)=O)CCN2C(c2nccs2)=N[C@H]1c1ccc(F)cc1Cl` (racemic) [Example 3] is 100 to 500 nM; for `CCOC(=O)C1=C2CCCN2C(c2nccs2)=NC1c1ccc(F)cc1Br` (racemic) [Example 4] it is 100 to 500 nM; for `CCOC(=O)C1=C2C[C@@H](CO)CN2C(c2nccs2)=NC1c1ccc(F)cc1Br` (mixture of isomers) [Example 8] it is 100 to 500 nM.
In the case of `COCC1CC2=C(C(=O)OC)C(c3ccc(F)cc3Br)N=C(c3nccs3)N2C1` (racemic) [Example 10], the EC50 was 1000 to 5000 nM.
Still for that read-out and setting: the figure for `CCOC(=O)C1=C2C[C@@H](CN3CCOCC3)CN2C(c2nccs2)=NC1c1ccc(F)cc1Br` (mixture of isomers) [Example 17] is 1000 to 5000 nM; for `CCOC(=O)C1=C2CC(C(=O)O)CN2C(c2nccs2)=NC1c1ccc(F)cc1Br` (racemic) [Example 23] it is 1000 to 5000 nM; for `CCOC(=O)C1=C2C[C@@H](C(N)=O)CN2C(c2nccs2)=NC1c1ccc(F)cc1Br` (mixture of isomers) [Example 28] it is 100 to 500 nM.
Still for that read-out and setting: the figure for `CCOC(=O)C1=C2CC(NC(=O)OC)CN2C(c2nccs2)=N[C@H]1c1ccc(F)cc1Br` (mixture of isomers) [Example 42] is less than 100 nM.
The same measure, in the same setting: the figure for `CCOC(=O)C1=C2CC(NC(=O)OC(C)C)CN2C(c2nccs2)=N[C@H]1c1ccc(F)cc1Br` (mixture of isomers) [Example 45] is less than 100 nM.
With `CCOC(=O)C1=C2CC(NC(C)=O)CN2C(c2nccs2)=N[C@H]1c1ccc(F)cc1Br` (mixture of isomers) [Example 48], the EC50 was 100 to 500 nM.
The same measure, in the same setting: the figure for `CCOC(=O)C1=C2CC(NC(=O)NC)CN2C(c2nccs2)=N[C@H]1c1ccc(F)cc1Br` (mixture of isomers) [Example 51] is 100 to 500 nM; for `CCOC(=O)C1=C2CC(NS(=O)(=O)NC)CN2C(c2nccs2)=N[C@H]1c1ccc(F)cc1Br` (mixture of isomers) [Example 54] it is less than 100 nM; for `CCOC(=O)C1=C2CC(NS(C)(=O)=O)CN2C(c2nccs2)=N[C@H]1c1ccc(F)cc1Br` (mixture of isomers) [Example 57] it is less than 100 nM.
Still for that read-out and setting: the figure for `CCOC(=O)C1=C2CC(NS(=O)(=O)C3CC3)CN2C(c2nccs2)=N[C@H]1c1ccc(F)cc1Br` (mixture of isomers) [Example 60] is less than 100 nM.
Same read-out and setting: as for `CCOC(=O)C1=C2COC(=O)N2C(c2nccs2)=NC1c1ccc(F)cc1Br` (racemic) [Example 67], the figure is 100 to 500 nM.
For the compound `CCOC(=O)C1=C2CCC(=O)N2C(c2nccs2)=NC1c1ccc(F)cc1Br` (racemic) [Example 68], the EC50 lay in the range of 1000 to 5000 nM.
On the same count and under the same terms, as for `CCOC(=O)C1=C2CCCN2C(c2nccs2)=NC1c1ccc(F)c(F)c1` (racemic) [Example 69], the figure is 100 to 500 nM.
